# Measured values from article PMC5071873, “The Effects of Puerarin on Rat Ventricular Myocytes and the Potential Mechanism” (Scientific Reports, 2016).
# Key:
# [1] = tested on: intracellular cAMP; assay: Mouse/Rat cAMP assay in rat cardiomyocytes; assay type: cell-based; conditions: puerarin 1 mM
# Procedure: cAMP levels were measured in rat cardiomyocytes using a Mouse/Rat cAMP kit (cAMP parameter assay kit, R&D Systems) according to the manufacturer’s instructions. The assay is based on the competitive binding technique. A streptavidin-coated plate is incubated with a biotinylated monoclonal antibody specific for cAMP. Following a wash to remove excess monoclonal antibody, cAMP present in a sample competes with a fixed amount of horseradish peroxidase (HRP)-labeled cAMP for sites on the monoclonal antibody. This is followed by another wash to remove excess conjugate and unbound sample. A substrate solution is added to the wells to determine the bound enzyme activity. The color development is stopped and the absorbance is read at 450 nm. The intensity of the color is inversely proportional to the concentration of cAMP in the sample. The level of cAMP in the sample was determined based on a standard curve and expressed as pmol/mg per each sample. Normalized cAMP was calculated by compared with the control group. In our study, we investigate the effect of puerarin on intracellular cAMP concentration and its effect upon the increase of cAMP induced by isoproterenol, forskolin and 8-Br-cAMP.
# [2] = biological target: T1, IKs channel (Homo sapiens, UniProt P51787); assay: Single-channel inside-out patch clamp recording of IKs; assay type: cell-based; conditions: puerarin 100 μM, inside-out, intracellular side
# T1 construct: expressed in transfected cells; host or cells: HEK293
# Procedure: The Tyrode’s solution contained (mM): 126 NaCl, 5.4 KCl, 1.8 CaCl2, 1 MgCl2, 0.33 NaH2PO4, 10 HEPES and 10 glucose, pH 7.4 (adjusted with NaOH). The Ca^2+-free Tyrode’s solution was prepared by removing CaCl2 from the Tyrode’s solution. The Kreb’s solution used for cell storage contained (mM): 70 glutamic acid, 30 KCl, 15 taurine, 0.5 MgCl2, 10 KH2PO4, 0.5 EGTA, 10 HEPES, 10 glucose, and 1% albumin, pH 7.4 (adjusted with KOH). The enzyme solution used for the rat cardiomyocyte isolation contained 0.08 g/L collagenase (type II) and 1.0 g/L BSA in Kreb’s solution. For action potential recording on cardiomyocyte, the pipette solution contained (mM): 100 potassium aspartate, 30 KCl, 1 MgCl2, 5 Mg-ATP, 5 EGTA, 5 HEPES, pH 7.3 (adjusted with KOH); the Tyrode’s solution was used as the standard bath solution. For whole-cell recording of IKs on myocytes, the pipette solution contained (mM): 125 potassium aspartate, 20 KCl, 1 MgCl2, 5 Mg-ATP, 10 EGTA, 5 HEPES, pH 7.3 (adjusted with KOH); the bath solution contained (mM): 132 NaCl, 4 KCl, 1.8 CaCl2, 1.2 MgCl2, 10 HEPES, 5 glucose, pH 7.4 (adjusted with NaOH). […]
# Single-channel activity was recorded at a series of holding levels ranging from 10 mV of 50 mV. […] Single-channel events were listed and analysed by pclampfit 9.0 (single-channel search-in-analyse function). […]
compound,measurement,setting,value
"O=c1c(-c2ccc(O)cc2)coc2c([C@@H]3O[C@H](CO)[C@@H](O)[C@H](O)[C@H]3O)c(O)ccc12 [Puerarin, 8-c-glucoside of daidzein]","effect upon the increase of cAMP induced by isoproterenol, forskolin",[1]; rat cardiac myocytes,no effect
same,effect on intracellular cAMP concentration,[1]; rat cardiac myocytes (text: also HEK293 transfected Kv7.1/IKs),no effect
same,open probability of IKs channel,[2],reduced
